The values that follow come from a melting point compilation (Tetko et al.; mined from patent text by program, amines drawn as free bases though some values may be those of a salt).

Molecules are shown by their SMILES.

The molecule `CCOC(=O)C=Cc1c(C)nc(SCc2ccc(OC)cc2)n1C` came in with a melting point of 165 to 167 °C.

As for `CCCC(CCC)NC(=O)Nc1ccc(OC)cc1OC`, the melting point lay in the range of 172 to 173 °C.

In turn, `Cc1cn(C(C)(C)C(=O)Nc2ccccc2)nc1-c1ccccc1` yielded a melting point of 116 to 119 °C.

The molecule `CCCc1nc(Nc2ccc(F)c(Cl)c2)nc(NC2CCN(S(C)(=O)=O)CC2)n1` returned a melting point of 86 to 87 °C.

Consider `CC=CC(=O)NCCc1ccc(S(=O)(=O)N2CCN(C3CCCCC3)C2=N)cc1`, for which the melting point lay within 157 to 158 °C.

As to `Cc1c(Cl)cccc1S(=O)(=O)Nc1ccc2oncc2c1`, the melting point came out at 112 °C.

Take `COc1ccc(C=Cc2c(Cl)cncc2Cl)c2c1CC1(CCCC1)O2`: the melting point fell in the range of 99 to 101 °C.

`O=C(N[C@H](c1ccccc1)[C@@H](O)CO)c1cc2ccccc2[nH]1` (racemic) registered a melting point of 151 °C.

Regarding `CNc1cnn(-c2ccc(F)cc2)c(=O)c1-c1cccc(C(F)(F)F)c1`, the melting point fell in the range of 161 to 162 °C.

`Nc1ccc(S(=O)(=O)Nc2ccc(Cl)cc2Cl)cc1C(=O)O` yielded a melting point of 224 °C.

Molecule `CCCNC(=O)Nc1c(C(=O)c2ccccc2)[nH]c2cc(Cl)ccc12` came in with a melting point of 234 to 236 °C.

On to `CN(C)c1c(Cl)cc(C(O)C#Cc2ccc(C(=O)O)cc2)cc1C(C)(C)C` (stereo unspecified), for which the melting point amounted to 120 °C.

`COc1cc(OC)c([C@@H]2CCCC[C@H]2O)c(OC)c1` (racemic) had a melting point of 125 to 127 °C.

`COc1ccc(C(=O)C2=C(C)C(=O)C3C=CC=CC3C2=O)cc1` (stereo unspecified): the melting point lay in the range of 150 to 151 °C.

Molecule `COc1ccc(CN(Cc2ccc(OC)cc2)c2nc(-c3ccccc3)c(-c3ccc(=O)n(C(C)C)n3)nc2C(N)=O)cc1` gave a melting point of 120 to 122 °C.

On to `COc1cc(OC)nc(NC(=O)NS(=O)(=O)c2ncccc2-c2ccccc2)n1`, for which the melting point turned out to be 181 °C.

The molecule `O=c1oc(-c2cccc(C(F)(F)F)c2)cc(O)c1SCc1ccccc1` yielded a melting point of 152 to 153 °C.

For the molecule `C=C(C)Cc1cc(C(=O)O)ccc1OCc1ccc(F)cc1`, the melting point was 164 to 165 °C.

As for `Cn1cc(C(=O)O)c(=O)c2c3ccc(F)c(N4CCN(c5cccc(C(F)(F)F)c5)CC4)c3ncc21`, the melting point worked out at 261 °C.

Consider `COc1cc2c(cc1OCc1ccccc1)CCN(Cc1cc(OC)c(OC)c(OC)c1)C2=O`, for which the melting point was in the range of 136 to 137 °C.

On to `Fc1cc(F)c(-c2c(Cl)nc3c(Cl)cnn3c2Cl)c(F)c1`, for which the melting point worked out at 128 °C.

As for `CCOC(=O)c1c(CCl)nc2sc(C)c(C)c2c1-c1ccc(Cl)cc1`, the melting point was 132 to 144 °C.

In the case of `COC(=O)c1cnc(C)n1C`, the melting point was 38 to 40 °C.

The molecule `CCc1cc(-c2ccccc2OC)n2nc(Nc3ccc(N4CCN(C)CC4)cc3)ncc12` showed a melting point of 154 to 156 °C.

Molecule `Cc1sc(-c2ccncc2)nc1CCOc1ccc(C[C@H](Nc2ccccc2C(=O)c2ccccc2)C(=O)O)cc1` had a melting point of 155 to 158 °C.

As for `CCCOc1ccc(C)c2c(=O)c(-c3ccc(OC)cc3)c[nH]c12`, the melting point was 192 to 193 °C.

In turn, `CCC1CC2=CCCCC2C2CCC3(C)C(O)CCC3C12` (stereo unspecified) showed a melting point of 155 to 157 °C.

`Cc1c(-c2ccccc2)oc2c(NC(=O)C(F)(F)F)cccc2c1=O` showed a melting point of 175 to 176 °C.

`CCOC(=O)C=Cc1cn(CCCC2(C)OCCO2)c2ccccc12` yielded a melting point of 61 to 62 °C.

In the case of `CC(C)(N)C(O)c1cc(C(F)(F)F)nc2c(C(F)(F)F)cccc12` (stereo unspecified), the melting point lay in the range of 175 to 176 °C.

For `CCOC(=O)C1=C(C)NC(COC(=O)CCC(=O)O)=C(C(=O)OCC)C1c1ccccc1Cl` (stereo unspecified), the melting point was in the range of 130 to 131 °C.

Consider `N=C(CCOCC(COCCC(=N)NO)(COCCC(=N)NO)COCCC(=N)NO)NO` (stereo unspecified), for which the melting point stood at 60 °C.

For `O=C(CN1CCC(Cc2ccccc2)CC1)Nc1ccc2cn[nH]c2c1`, the melting point is 165 to 169 °C.

`CC(N)Cn1ncc2ccc3c(c21)CC(O)CO3` (stereo unspecified) returned a melting point of 46 to 51 °C.

In turn, `Oc1ncnc(C(F)F)c1Cl` yielded a melting point of 148 to 150 °C.

`CSC(=C[N+](=O)[O-])NCCN(C)Cc1ccc(Cl)nc1` returned a melting point of 93 to 95 °C.

With `O=c1c2cc(F)c(N3CCCC3)cc2n(-c2ccccc2F)c(=O)n1O`, the melting point was 235 to 237 °C.

Turning to `CC(O)c1cccc2cccc(O)c12` (stereo unspecified), the melting point fell in the range of 89 to 90 °C.

For the molecule `Cn1c(C(F)(F)F)cc(=O)n(-c2c(F)cc(Cl)c3c2OCCC3)c1=O`, the melting point was 141 to 145 °C.

`CCOC(=O)c1cn(C)c2cc(F)c(F)cc2c1=O` registered a melting point of 210 to 212 °C.

With `O=CNc1ccccc1F`, the melting point was in the range of 47 to 48 °C.

`Cc1ccc(N2C(=O)NC(NCC(C)C)NC2=O)cc1`: the melting point lay within 297 to 301 °C.

For `C[C@@H](O)C(=O)OC(C)(C)C`, the melting point lay in the range of 41 to 42 °C.

`O=C(O)C(=O)c1ccc(SCCOc2ccc3ccccc3c2)cc1` returned a melting point of 161 to 162 °C.

Turning to `CC(C)(CO)C1CCN(CC#Cc2cc(C(F)(F)F)cc(C(F)(F)F)c2)CC1`, the melting point is 85 to 87 °C.

Regarding `COc1cccc2c1CN(c1nc3c(cc1F)c(=O)c(C(=O)O)cn3C1CC1)C2`, the melting point was > 300 °C.

Molecule `O[C@@H](CNCCOc1ccc2sc(-c3ncon3)cc2c1)COc1ccccc1` came in with a melting point of 101 to 102 °C.

Turning to `CN1CCN(c2ccc(C3(C)C(=O)Nc4ccc(Cl)cc43)c(Cl)c2)CC1` (stereo unspecified), the melting point amounted to 155 °C.

Regarding `COC(=O)CCc1cnoc1-c1ccc(OC)c(OC)c1`, the melting point was 68 to 69 °C.

`Cc1ccc(S(=O)(=O)OCCNC(=O)OC(C)(C)C)cc1` showed a melting point of 64 to 66 °C.

`COC(=O)c1ccc(F)cc1NS(C)(=O)=O` came in with a melting point of 116 °C.

In turn, `CNC(=O)COC(=O)N1CCN(CCCc2cccc(-c3cccc(Cl)c3)c2)CC1` had a melting point of 82 to 85 °C.

Turning to `Oc1ccc(OCc2ccccc2)cc1OCc1ccccc1`, the melting point is 82 to 83 °C.

`O=C(O)Cc1cc(O)c2c(c1)CCc1ccccc1C2=O`: the melting point lay within 149 to 151 °C.

With `NC(=O)N1CCCN(NC(=O)OCc2ccccc2)C1=O`, the melting point was 136 °C.

In the case of `N#Cc1ccc(-c2cccc(-c3nc4cc(C#N)ccc4[nH]3)c2)cc1`, the melting point lay within 303 to 304 °C.

Molecule `CN(CCCl)S(=O)(=O)c1ccc2ccccc2c1` had a melting point of 101 °C.

Molecule `COc1nc2ccccc2c(=O)n1O` registered a melting point of 220 °C.

Regarding `CCOC(=O)c1c(N(C(=O)OC(C)(C)C)C(=O)OC(C)(C)C)sc(C)c1C`, the melting point is 70 to 78 °C.

Regarding `CCCOCCOc1ccc(-c2ccc3c(c2)C=C(C(=O)OC)CCS3(=O)=O)cc1`, the melting point is 105 to 107 °C.

Take `CNc1cc(Oc2ccc(Cl)cc2Cn2ccnc2)ccc1[N+](=O)[O-]`: the melting point is 130 °C.

As for `CC(C)(C)OC(=O)N[C@@H](Cc1ccc(NC(=O)c2csc(NC(=O)NCc3ccccc3)n2)cc1)C(=O)O`, the melting point turned out to be 231 °C.

`COC(=O)c1nnc(Cl)cc1Cl` registered a melting point of 57 to 59.5 °C.

Turning to `CCN(CC)CC(O)c1cccc2c(C)c(C)oc12` (stereo unspecified), the melting point was in the range of 138 to 142 °C.

The molecule `CS(=O)(=O)c1ccc(-c2cnn(CC(F)(F)F)c(=O)c2Nc2cc(F)cc(F)c2F)cc1` came in with a melting point of 190 to 194 °C.

Turning to `COC(=O)c1cccc(CSc2c(O)cc(-c3ccccc3)oc2=O)c1`, the melting point lay within 170 to 171 °C.

`Cc1[nH]c(=O)[nH]c1C(=O)c1cccs1` had a melting point of 212 to 215 °C.

For `CCOC(=O)C1=C(CO)NC(CF)=C(C(=O)OCC)C1c1cccc([N+](=O)[O-])c1` (stereo unspecified), the melting point is 149 to 150 °C.

`CCOC(=O)N1CCN(c2nn(-c3ccc(C(F)(F)F)cc3)c3ccccc23)CC1`: the melting point is 123 to 126 °C.

With `COC(=O)C[C@@H](CI)O[Si](c1ccccc1)(c1ccccc1)C(C)(C)C`, the melting point is 84 to 88 °C.

Turning to `COc1ccc(-c2nc(CCOc3ccc(CN(O)C(N)=O)cc3)c(C)o2)cc1`, the melting point lay in the range of 100 to 101 °C.

`Cc1ccc(S(=O)(=O)Nc2ccc(C3SC(=O)NC3=O)cc2)cc1` (stereo unspecified) yielded a melting point of 215 to 218 °C.

`C=C(C)c1ccc2cc(OC)ccc2c1` returned a melting point of 101 °C.

`COc1cc(C)nc(-c2ccc(C=O)cc2)n1` had a melting point of 125 to 126 °C.

In the case of `Cc1c(NCCNC(=O)OC(C)(C)C)c([N+](=O)[O-])c2nnnn2c1C`, the melting point was 145 to 147 °C.

Consider `O=C(O)Cc1ccc(-c2ccc(F)cc2F)c(Cl)c1`, for which the melting point was in the range of 114 to 116 °C.

`CCOC(=O)/C=C/c1cc(OC)c(OC)c(OC)c1C#N` came in with a melting point of 150 to 152 °C.

The molecule `N#Cc1c(N2CCOCC2)cccc1[N+](=O)[O-]` displayed a melting point of 152 to 155 °C.

On to `Cc1ccc(C2CN(c3cc4nc5c(cc4cc3F)c(=O)c(C(=O)O)cn5C)CCN2)cc1C` (racemic), for which the melting point came out at 276 °C.

Molecule `CCOC(=O)C(O)c1ccc(C2CCCCC2)cc1` (stereo unspecified) gave a melting point of 85 to 86 °C.

With `CCc1nc2c(N)nc3ccccc3c2n1CCCCS(=O)(=O)NC`, the melting point was in the range of 190 to 191 °C.

`COc1ccc(C(=O)c2cccc(NC(=O)c3ccn4c3CSC4c3cccnc3)c2)cc1` (stereo unspecified): the melting point was 140 °C.

In turn, `O=S1(=O)c2ccccc2Oc2cc(OCC(F)(F)F)ccc21` returned a melting point of 165 to 166 °C.

`CCOC(=O)C(C)(C)Oc1ccc(-c2ccc(CCNC(=O)c3ccccc3)cc2)cc1` displayed a melting point of 100 °C.

With `CNc1cc(-c2ccc(Cl)cc2)nc(C(=O)OC)c1N`, the melting point was in the range of 178 to 200 °C.

Regarding `CNC(=S)Nc1cc(C(=O)OC)c(O)c2ncc(Cc3ccc(F)cc3)cc12`, the melting point was in the range of 189 to 191 °C.

The molecule `COCc1ccn2c(C)c(CCc3ccc4nc(N)oc4c3)nc2c1` gave a melting point of 206 to 207 °C.

Consider `COc1cc(Nc2nccc(-c3ccc(NCCCN)nc3)n2)cc(OC)c1OC`, for which the melting point fell in the range of 152 to 153 °C.

`COC1=CC(O)(SC(=O)N(C)C)C([N+](=O)[O-])C=C1` (stereo unspecified) gave a melting point of 101 °C.

Molecule `CC1=C(C(O)c2ccc3c(c2)CN(C(N)=O)CC3)C(C)(C)CCC1` (stereo unspecified) had a melting point of 88.2 to 89.5 °C.

As for `CN(C)C(=O)COc1ccc2c(c1)C[C@@H](NC[C@@H](O)c1ccc(OCc3ccccc3)cc1)CC2`, the melting point was 103 to 106 °C.
